Experimental data as given in paper PMC6891756, “Synthesis and Biological Evaluation of Novel Aminochalcones as Potential Anticancer and Antimicrobial Agents” (Molecules, 2019).
≈ marks a conversion by molar mass, not a printed value.

Columns and labels:
HT-29 = test: SRB antiproliferative assay, HT-29; assay type: cell-based, human; details: SRB, 48 h, 1–100 µg·mL^−1, ND = not detected in the tested concentration range; for IC50: Homo sapiens, HT-29
Procedure: (§1) Anticancer activity was evaluated using the sulforhodamine B assay (SRB) on four different human colon cancer cell lines: HT-29, LS180, LoVo and LoVo/DX and green monkey kidney fibroblasts COS7 (ATCC, Manassas, VA, USA). Cell lines HT-29 and COS7 were cultured in α-MEM medium (IIET PAS, Wrocław, Poland), LS180 in OptiMEM medium (IIET PAS), LoVo and LoVo/DX in mixture of α-MEM and OptiMEM medium (1:1 (v:v)). Each culture medium was supplemented with 10% fetal bovine serum, 2 mM glutamine, 100 μg·mL^−1 penicillin, 100 μg·mL^−1 streptomycin and 0.25 μg·mL^−1 amphotericin (all supplements purchased from Gibco (Paisley, UK). Cells were incubated at 37 °C, 5% CO2 in HeraCELL 150i incubator (Thermo Fisher Scientific, Waltham, MA, USA).
(§2) For the SRB assay, cells were seeded onto 96-well plates (Sarstedt, Nümbrecht, Germany) at a density of 5·10^3/well and cultured overnight as described above. Then, the growth medium was gently removed and replaced with fresh medium, supplemented with aminochalcone derivatives in the concentration ranging from 1 µg·mL^−1 to 100 µg·mL^−1. All stock solutions were prepared in DMSO at a concentration of 10 mg·mL^−1. Cells were incubated for 48 h and then the SRB assay was performed as described previously. Each experiment was performed in quadruplicate. The final results were reported as the IC50 values calculated for three independent experiments. Cisplatin (Acros Organics, Waltham, MA, USA) and doxorubicin (Fisher BioReagents, Waltham, MA, USA) were used as positive controls of the test.

LS180 = test: SRB antiproliferative assay, LS180; assay type: cell-based, human; details: 1–100 µg·mL^−1, ND = not detected in the tested concentration range; for IC50: Homo sapiens, LS180, 48 h
Procedure: as §1, §2

LoVo = test: SRB antiproliferative assay, LoVo; assay type: cell-based, human; details: 48 h, 1–100 µg·mL^−1, ND = not detected in the tested concentration range; for IC50: Homo sapiens, LoVo
Procedure: as §1, §2

LoVo/DX = test: SRB antiproliferative assay, LoVo/DX; assay type: cell-based, human; details: 48 h, 1–100 µg·mL^−1, ND = not detected in the tested concentration range; for IC50: Homo sapiens, LoVo/DX
Procedure: as §1, §2

[1] = SRB assay, normal fibroblasts COS7; assay type: cell-based, green monkey; details: green monkey, COS7 kidney fibroblasts (normal cell line), ND = not detected in the tested concentration range
Procedure: as §1, §2

[2] = test system: Escherichia coli ATCC10536; test: Microbial growth curve screening, E. coli; assay type: cell-based; details: 0.1% (w/v), OD at 560 nm, control 1.61
Procedure: (§3) The antimicrobial screening tests were performed on two strains of bacteria: E. coli ATCC10536 and S. aureus DSM799, strain of yeast C. albicans DSM1386 and three strains of fungi: F. linii KB-F1, A. alternata CBS1526 and A. niger DSM1957. All microorganisms were obtained from the collection of the Faculty of Biotechnology and Food Microbiology, Wrocław University of Environmental and Life Sciences. The bacteria were cultured in nutrient broth (Biocorp, Warsaw, Poland), yeast and fungi in YM medium (3 g yeast extract, 3 g malt extract, 5 g bacteriological peptone and 10 g of glucose dissolved in 1 L of distilled water). The tests were carried out in 100-well microtiter plates. To each well 280 μL of culture medium, 10 μL of microorganism suspension and 10 μL of aminochalcone (1–18) dissolved in dimethyl sulfoxide (3% (w/v)) were added. The final concentration of the tested compound (1–18) was 0.1% (w/v). Each experiment were performed in 3 replications. The optical density of the cell suspension was measured on Bioscreen C (Automated Growth Curve Analysis System Lab System, Vantaa, Finland) at 560 nm automatically, at regular intervals of 30 min for 2–3 days. Cell cultures were maintained at 28 °C on a continuous shaker. To prepare the growth curves for each strain, the mean values of the absorbance in a function of time were used. The resulting antimicrobial activity was expressed as the increase of optical density (ΔOD) and was compared to that of the control cultures in the medium supplemented with dimethyl sulfoxide and also with reference substances: oxytetracycline (against bacteria), cycloheximide (against yeast) and nystatin (against fungi) (Sigma Aldrich).

[3] = test system: Staphylococcus aureus DSM799; test: Microbial growth curve screening, S. aureus; assay type: cell-based; details: 0.1% (w/v); for ∆OD S. aureus: OD at 560 nm, control 1.67
Procedure: as §3

[4] = test system: Alternaria alternata CBS1526; test: Microbial growth curve screening, A. alternata; assay type: cell-based; details: 0.1% (w/v); for ∆OD A. alternata: OD at 560 nm, control 1.86
Procedure: as §3

Fusarium linii KB-F1 [5] = test: Microbial growth curve screening, F. linii; assay type: cell-based; details: 0.1% (w/v), OD at 560 nm, control 1.95
Procedure: as §3

[6] = test system: Escherichia coli ATCC10536; test: MIC evaluation (broth method), E. coli; assay type: cell-based; details: 48–72 h, read-out: Minimal inhibitory concentration E. coli
Procedure: (§4) Sterile 96-well microtiter plates (Sarstedt) with nutrient broth (for bacteria) (Biocorp) or YM medium (for yeast and filamentous fungi) were inoculated with a standardized cell suspension of bacteria and yeast or fungal spores of 10^5 cell·mL^−1, and supplemented with aminochalcones dissolved in DMSO. […] All analysis were conducted in triplicates. The plates were incubated at 30 °C (bacteria and yeast) or 25 °C (filamentous fungi) for 48–72 h. The results were measured with the Spark® Multimode Microplate Reader (Tecan, Männedorf, Switzerland) at a 560 nm wavelength. The minimal inhibitory concentration was defined as the lowest concentration of a tested compound that completely restricted the growth of the microorganism. In order to verify the obtained results, microbial cultures subjected to each concentration of aminochalcone were inoculated onto nutrient agar or YM plates and incubated as described above. The lack of growth on agar plate was a confirmation of the MIC of the tested compound. The resulting MIC values were compared with the reference substances: oxytetracycline (against bacteria), cycloheximide (against yeast) and nystatin (against fungi) (Sigma Aldrich).

[7] = test system: Staphylococcus aureus DSM799; test: MIC evaluation (broth method), S. aureus; assay type: cell-based; details: 48–72 h, read-out: Minimal inhibitory concentration S. aureus
Procedure: as §4

Candida albicans DSM1386 = test: MIC evaluation (broth method), C. albicans; assay type: cell-based; details: DSM1386, broth method, 48–72 h, read-out: Minimal inhibitory concentration C. albicans
Procedure: as §4

[8] = test system: Alternaria alternata CBS1526; test: MIC evaluation (broth method), A. alternata; assay type: cell-based; details: Alternaria alternata, CBS1526, 48–72 h, read-out: Minimal inhibitory concentration A. alternata
Procedure: as §4

Fusarium linii KB-F1 [9] = test: MIC evaluation (broth method), F. linii; assay type: cell-based; details: Fusarium, KBF1, 48–72 h, read-out: Minimal inhibitory concentration F. linii
Procedure: as §4

[10] = test system: Aspergillus niger DSM1957; test: MIC evaluation (broth method), A. niger; assay type: cell-based; details: Aspergillus niger, DSM1957, 48–72 h, read-out: Minimal inhibitory concentration A. niger
Procedure: as §4

[11] = test system: all tested microorganisms; test: MIC evaluation, all tested strains (pooled statement); assay type: cell-based; details: read-out: MIC values against all tested microorganisms
Procedure: as §4

[12] = test system: all tested microorganisms; test: Growth curve screening, all tested microorganisms (pooled statement); assay type: cell-based; details: 0.1% (w/v)
Procedure: as §3, with “To each well 280 μL of culture medium, 10 μL of microorganism suspension and 10 μL of aminochalcone (1–18) dissolved in dimethyl sulfoxide (3% (w/v)) were added. The final concentration of the tested compound (1–18) was 0.1% (w/v). Each experiment were performed in 3 replications.” left out, “Cell cultures were maintained at 28 °C on a continuous shaker.” left out

[13] = test system: human breast cancer cell line T47D; design: method as in earlier work; details: cited from earlier work
[14] = test system: Aspergillus niger DSM1957; test: Microbial growth curve screening, A. niger; assay type: cell-based; details: 0.1% (w/v)
Procedure: as §3

Trichophyton rubrum = test system: Trichophyton rubrum; design: method as in doi:10.1007/s10600-018-2281-7; details: cited from earlier work
[15] = test system: green monkey kidney fibroblasts COS7; test: SRB assay, normal fibroblasts COS7; assay type: cell-based; details: 48 h, normal cell line, ND = not detected in the tested concentration range
Procedure: as §1, §2

Question: Which IC50 (HT-29) does the source give for `Nc1ccc(C(=O)/C=C/c2ccccc2)cc1` [Compound 3, 4′-Aminochalcone] here?
Answer: The IC50 was 1.98 ± 0.18 mg/L (≈ 8.87 µM).

Question: And the IC50 (LS180)?
Answer: The IC50 was 4.68 ± 0.09 mg/L (≈ 21 µM).

Question: What about the IC50 (LoVo) of the same compound?
Answer: The IC50 was 2.84 ± 0.09 mg/L (≈ 12.7 µM).

Question: What about the IC50 (LoVo/DX) of the same compound?
Answer: Its IC50 is 2.26 ± 0.05 mg/L (≈ 10.1 µM).

Question: And the IC50 at 48 h [1]?
Answer: Its IC50 at 48 h is 3.85 ± 0.28 mg/L (≈ 17.2 µM).

Question: And the “∆OD E. coli” value [2]?
Answer: Its value is 0.0.

Question: What about the “∆OD S. aureus” value [3] of the same compound?
Answer: The value was 0.0.

Question: What about the “∆OD A. alternata” value [4] of the same compound?
Answer: Its value is 0.0.

Question: What about the “∆OD F. linii” value (Fusarium linii KB-F1 [5]) of the same compound?
Answer: The value was 0.

Question: What about the MIC [6] of the same compound?
Answer: The MIC was 0.5 mg/L (≈ 2.24 µM).

Question: What about the MIC [7] of the same compound?
Answer: Its MIC is 0.25 mg/L (≈ 1.12 µM).

Question: And the MIC (Candida albicans DSM1386)?
Answer: The MIC was 0.5 mg/L (≈ 2.24 µM).

Question: And the MIC [8]?
Answer: The MIC was 0.5 mg/L (≈ 2.24 µM).

Question: What about the MIC (Fusarium linii KB-F1 [9]) of the same compound?
Answer: Its MIC is 0.25 mg/L (≈ 1.12 µM).

Question: What about the MIC [10] of the same compound?
Answer: The MIC was 0.5 mg/L (≈ 2.24 µM).

Question: What about the MIC [11] of the same compound?
Answer: Its MIC is 0.25 to 0.5 mg/L (≈ 1.12 to 2.24 µM).

Question: What about the “growth inhibition of all tested microorganisms” value [12] of the same compound?
Answer: Its value is “complete inhibition of the growth”.

Question: What about the “IC50 T47D (literature)” value [13] of the same compound?
Answer: The value was 5.28 mg/L (≈ 23.6 µM).

Question: Which results are given for `Nc1ccccc1C(=O)/C=C/c1ccc([N+](=O)[O-])cc1` [Compound 10, 2′-Amino-4-nitrochalcone]?
Answer: IC50 (HT-29): 3.24 ± 0.27 mg/L (≈ 12.1 µM); IC50 (LS180): 2 ± 0.35 mg/L (≈ 7.46 µM); IC50 (LoVo): 1.11 ± 0.07 mg/L (≈ 4.14 µM); IC50 (LoVo/DX): 0.96 ± 0.12 mg/L (≈ 3.58 µM); IC50 at 48 h [1]: 1.79 ± 0.14 mg/L (≈ 6.67 µM); ∆OD E. coli [2]: 0.0; ∆OD S. aureus [3]: 0.15; Lag-phase S. aureus ([3]; control 2.5 h): 11.5 h; ∆OD A. alternata [4]: 0.20; Lag-phase A. alternata ([4]; control 16.5 h): 0.5 h; ∆OD F. linii (Fusarium linii KB-F1 [5]): 0.0; ∆OD A. niger ([14]; OD at 560 nm, control 2.14): 0.79; Lag-phase A. niger ([14]; control 11.0 h): 23.0 h; MIC [6]: 0.25 mg/L (≈ 0.932 µM); MIC (Candida albicans DSM1386): 0.5 mg/L (≈ 1.86 µM); MIC (Fusarium linii KB-F1 [9]): 0.5 mg/L (≈ 1.86 µM); melting point: 114 to 117 °C; MIC80 Trichophyton rubrum (literature) (Trichophyton rubrum): 0.5 mg/L (≈ 1.86 µM)

Question: Which “IC50 HT-29” value (HT-29) does the source give for `N.N.[Cl][Pt][Cl]` [Compound 19, Cisplatin, reference compound] here?
Answer: The value was 16.73 ± 0.58 mg/L.

Question: What about the “IC50 LS180” value (LS180; 48 h) of the same compound?
Answer: Its value is 1.49 ± 0.13 mg/L.

Question: What about the “IC50 LoVo” value (LoVo) of the same compound?
Answer: The value was 2.09 ± 0.12 mg/L.

Question: What about the “IC50 LoVo/DX” value (LoVo/DX) of the same compound?
Answer: The value was 2.03 ± 0.17 mg/L.

Question: What about the “IC50 COS7” value [15] of the same compound?
Answer: The value was 3.86 ± 0.62 mg/L.
